Laboratory results taken from PubChem BioAssay (NCI).
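All cell lines were grown in 96-well plates and treated with compound for 48 hours. GI50 is the concentration that inhibits growth by half. TGI denotes the concentration required for complete inhibition of growth.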

Columns and labels:
Test in all cases: growth of human tumour cells (NCI), 48 h; in the data active = GI50 below about 0.43 µM; inactive = the rest
[1] = system: 786-0 renal
[2] = system: A498 renal
[3] = system: A549 NSCLC
[4] = system: ACHN renal
[5] = system: BT-549 breast
[6] = system: CAKI-1 renal
[7] = system: CCRF-CEM leukemia
[8] = system: COLO 205 colon
[9] = system: DU-145 prostate
[10] = system: EKVX NSCLC
[11] = system: HCC-2998 colon
[12] = system: HCT-116 colon
[13] = system: HCT-15 colon
[14] = system: HL-60(TB) leukemia
[15] = system: HOP-62 NSCLC
[16] = system: HS 578T breast
[17] = system: HT29 colon
[18] = system: IGROV1 ovarian
[19] = system: K-562 leukemia
[20] = system: KM12 colon
[21] = system: LOX IMVI melanoma
[22] = system: M14 melanoma
[23] = system: MALME-3M melanoma
[24] = system: MCF7 breast
[25] = system: MDA-MB-231 breast
[26] = system: MDA-MB-435
[27] = system: MOLT-4 leukemia
[28] = system: NCI-H226 lung
[29] = system: NCI-H23 lung
[30] = system: NCI-H460 lung
[31] = system: NCI-H522 lung
[32] = system: NCI/ADR-RES ovarian
[33] = system: OVCAR-3 ovarian
[34] = system: OVCAR-4 ovarian
[35] = system: OVCAR-5 ovarian
[36] = system: OVCAR-8 ovarian
[37] = system: PC-3 prostate
[38] = system: RPMI-8226 leukemia
[39] = system: RXF 393 renal
[40] = system: SF-268 CNS
[41] = system: SF-295 CNS
[42] = system: SF-539 CNS
[43] = system: SK-MEL-2 melanoma
[44] = system: SK-MEL-28 melanoma
[45] = system: SK-MEL-5 melanoma
[46] = system: SK-OV-3 ovarian
[47] = system: SN12C renal
[48] = system: SNB-19 CNS
[49] = system: SNB-75 CNS
[50] = system: SR leukemia
[51] = system: SW-620 colon
[52] = system: TK-10 renal
[53] = system: U251 CNS
[54] = system: UACC-257 melanoma
[55] = system: UACC-62 melanoma
[56] = system: UO-31 renal

COc1cc(C2Cc3ncccc3-c3[nH]c(=O)c4cccnc4c32)cc(OC)c1OC (configuration not stated)
635 nM: TGI [31]
> 87400 nM: TGI [15]
1550 nM: TGI [42]
5490 nM: TGI [33]
13500 nM: TGI [2]
2950 nM: TGI [14]
active: GI50 [2] 363 nM | GI50 [8] 332 nM | GI50 [14] 251 nM | GI50 [15] 396 nM | GI50 [17] 347 nM | GI50 [19] 313 nM | GI50 [20] 373 nM | GI50 [22] 405 nM | GI50 [24] 277 nM | GI50 [26] 55.4 nM | GI50 [31] 204 nM | GI50 [33] 323 nM | GI50 [39] 289 nM | GI50 [41] 274 nM | GI50 [42] 269 nM | GI50 [45] 339 nM | GI50 [46] 376 nM | GI50 [49] 255 nM | GI50 [50] 281 nM | GI50 [51] 412 nM
20200 nM: TGI [45]
38200 nM: TGI [53]
> 100000 nM: TGI [1] | TGI [3] | TGI [4] | TGI [6] | TGI [7] | TGI [9] | TGI [10] | TGI [11] | TGI [12] | TGI [13] | TGI [16] | TGI [17] | TGI [18] | TGI [19] | TGI [20] | TGI [21] | TGI [22] | TGI [23] | TGI [24] | TGI [25] | TGI [27] | TGI [28] | TGI [29] | TGI [30] | TGI [32] | TGI [34] | TGI [35] | TGI [36] | TGI [37] | TGI [38] | TGI [40] | TGI [41] | TGI [43] | TGI [44] | TGI [46] | TGI [47] | TGI [48] | TGI [49] | TGI [50] | TGI [51] | TGI [52] | TGI [54] | TGI [55] | TGI [56]
inactive: GI50 [1] 1410 nM | GI50 [3] 825 nM | GI50 [4] 669 nM | GI50 [5] 633 nM | GI50 [6] 1580 nM | GI50 [7] 467 nM | GI50 [9] 428 nM | GI50 [10] 3210 nM | GI50 [11] 2240 nM | GI50 [12] 456 nM | GI50 [13] 809 nM | GI50 [16] 613 nM | GI50 [18] 460 nM | GI50 [21] 452 nM | GI50 [23] > 100000 nM | GI50 [25] 3880 nM | GI50 [27] 535 nM | GI50 [28] > 74700 nM | GI50 [29] 999 nM | GI50 [30] 429 nM | GI50 [32] 2160 nM | GI50 [34] 1120 nM | GI50 [35] 4820 nM | GI50 [36] 970 nM | GI50 [37] 513 nM | GI50 [38] 680 nM | GI50 [40] 670 nM | GI50 [43] 485 nM | GI50 [44] 36000 nM | GI50 [47] 1190 nM | GI50 [48] 823 nM | GI50 [52] > 100000 nM | GI50 [53] 524 nM | GI50 [54] > 100000 nM | GI50 [55] 463 nM | GI50 [56] 819 nM
2010 nM: TGI [39]
1270 nM: TGI [8]
66600 nM: TGI [5]
428 nM: TGI [26]
